Patent US10806785B2, “Immunomodulator compounds and methods of use” (Incyte Corporation, priority 2016, dated 2020)

target: PD-1/PD-L1 (Homo sapiens (Human), UniProt Q9NZQ7); assay: PD-1/PD-L1 binding assay (HTRF)
Procedure: The assays were conducted in a standard black 384-well polystyrene plate with a final volume of 20 μL. Inhibitors were first serially diluted in DMSO and then added to the plate wells before the addition of other reaction components. The final concentration of DMSO in the assay was 1%. The assays were carried out at 25° C. in the PBS buffer (pH 7.4) with 0.05% Tween-20 and 0.1% BSA. Recombinant human PD-L1 protein (19-238) with a His-tag at the C-terminus was purchased from AcroBiosystems (PD1-H5229). Recombinant human PD-1 protein (25-167) with Fc tag at the C-terminus was also purchased from AcroBiosystems (PD1-H5257). PD-L1 and PD-1 proteins were diluted in the assay buffer and 10 μL was added to the plate well. Plates were centrifuged and proteins were preincubated with inhibitors for 40 minutes. The incubation was followed by the addition of 10 μL of HTRF detection buffer supplemented with Europium cryptate-labeled anti-human IgG (PerkinElmer-AD0212) specific for Fc and anti-His antibody conjugated to SureLight®-Allophycocyanin (APC, PerkinElmer-AD0059H). After centrifugation, the plate was incubated at 25° C. for 60 min. before reading on a PHERAstar FS plate reader (665 nm/620 nm ratio). Final concentrations in the assay were […], 10 nM PD-L1, 1 nM europium anti-human IgG and 20 nM anti-His-Allophycocyanin. IC50 determination was performed by fitting the curve of percent control activity versus the log of the inhibitor concentration using the GraphPad Prism 5.0 software.

PD-1/PD-L1, sequence (Q9NZQ7 19-238): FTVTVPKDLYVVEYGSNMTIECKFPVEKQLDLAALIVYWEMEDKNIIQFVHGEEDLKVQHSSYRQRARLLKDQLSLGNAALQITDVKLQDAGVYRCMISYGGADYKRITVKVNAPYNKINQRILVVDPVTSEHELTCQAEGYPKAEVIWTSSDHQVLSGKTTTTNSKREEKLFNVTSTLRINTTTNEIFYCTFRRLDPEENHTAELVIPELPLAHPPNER

IC50, ≤ 10 nM:
Cc1c(NC(=O)c2nc3c(n2C)CCN(C2CCC(C)(C(=O)O)CC2)C3)cccc1-c1cccc(NC(=O)c2nc3c(n2C)CCN(C2CCOCC2)C3)c1Cl (centres unmarked) [Example 108, 4-(2-((2′-chloro-2-methyl-3′-(1-methyl-5-(tetrahydro-2H-pyran-4-yl)-4,5,6,7-tetrahydro-1H-imidazo[4,5-c]pyridine-2-carboxamido)-[1,1′-biphenyl]-3-yl)carbamoyl)-1-methyl-1,4,6,7-tetrahydro-5H-imidazo[4,5-c]pyridin-5-yl)-1-methylcyclohexane-1-carboxylic acid]
Cn1c(C(=O)Nc2cccc(-c3cccc(NC(=O)c4nc5c(n4C)CCN(C[C@H]4CC[C@H](C(=O)O)CC4)C5)c3Cl)c2Cl)nc2c1CCNC2 [Example 61, trans-4-((2-(2,2′-dichloro-3′-(1-methyl-4,5,6,7-tetrahydro-1H-imidazo[4,5-c]pyridine-2-carboxamido)biphenyl-3-ylcarbamoyl)-1-methyl-6,7-dihydro-1H-imidazo[4,5-c]pyridin-5(4H)-yl)methyl)cyclohexane-1-carboxylic acid]
CN1CCc2c(nc(C(=O)Nc3cccc(-c4cccc(NC(=O)c5nc6c(n5C)CCN(CCO)C6)c4Cl)c3C#N)n2C)C1 [Example 38, N-(2-chloro-2′-cyano-3′-(1,5-dimethyl-4,5,6,7-tetrahydro-1H-imidazo[4,5-c]pyridine-2-carboxamido)biphenyl-3-yl)-5-(2-hydroxyethyl)-1-methyl-4,5,6,7-tetrahydro-1H-imidazo[4,5-c]pyridine-2-carboxamide]
Cn1c(C(=O)Nc2cccc(-c3cccc(NC(=O)c4nc5c(n4C)CCN(C4CCC(O)CC4)C5)c3Cl)c2Cl)nc2c1CCN(CC13CCC(C(=O)O)(CC1)C3)C2 (single isomer, unassigned) [183 (compound 183-1), 4-((2-(2,2′-dichloro-3′-(5-(4-hydroxycyclohexyl)-1-methyl-4,5,6,7-tetrahydro-1H-imidazo[4,5-c]pyridine-2-carboxamido)biphenyl-3-ylcarbamoyl)-1-methyl-6,7-dihydro-1H-imidazo[4,5-c]pyridin-5(4H)-yl)methyl)bicyclo[2.2.1]heptane-1-carboxylic acid]
Cc1c(NC(=O)c2nc3c(n2C)CCN(C2CCCC2)C3)cccc1-c1cccc(NC(=O)c2nc3c(n2C)CCN(CC[C@H]2CC[C@H](C(=O)O)CC2)C3)c1Cl [Example 130, trans-4-(2-(2-((2-chloro-3′-(5-cyclopentyl-1-methyl-4,5,6,7-tetrahydro-1H-imidazo[4,5-c]pyridine-2-carboxamido)-2′-methyl-[1,1′-biphenyl]-3-yl)carbamoyl)-1-methyl-1,4,6,7-tetrahydro-5H-imidazo[4,5-c]pyridin-5-yl)ethyl)cyclohexane-1-carboxylic acid]
C[C@@H](O)CN1CCc2c(nc(C(=O)Nc3cccc(-c4cccc(NC(=O)c5nc6c(n5C)CCN(CC[C@H]5CC[C@H](C(=O)O)CC5)C6)c4Cl)c3Cl)n2C)C1 [Example 95, trans-4-(2-(2-((2,2′-dichloro-3′-(5-((R)-2-hydroxypropyl)-1-methyl-4,5,6,7-tetrahydro-1H-imidazo[4,5-c]pyridine-2-carboxamido)-[1,1′-biphenyl]-3-yl)carbamoyl)-1-methyl-1,4,6,7-tetrahydro-5H-imidazo[4,5-c]pyridin-5-yl)ethyl)cyclohexane-1-carboxylic acid]
CN1CCc2c(nc(C(=O)Nc3cccc(-c4cccc(NC(=O)c5nc6c(n5C)CCN(CC5CCC(C)(C(=O)O)CC5)C6)c4Cl)c3Cl)n2C)C1 (single isomer, unassigned) [Compound 82-1, 4-((2-((2,2′-dichloro-3′-(1,5-dimethyl-4,5,6,7-tetrahydro-1H-imidazo[4,5-c]pyridine-2-carboxamido)-[1,1′-biphenyl]-3-yl)carbamoyl)-1-methyl-1,4,6,7-tetrahydro-5H-imidazo[4,5-c]pyridin-5-yl)methyl)-1-methylcyclohexane-1-carboxylic acid]
Cc1c(NC(=O)c2nc3c(n2C)CCN(C)C3)cccc1-c1cccc(NC(=O)c2nc3c(n2C)CCN(CCc2ccc(C(=O)O)cc2)C3)c1Cl [Example 117, 4-(2-(2-((2-chloro-3′-(1,5-dimethyl-4,5,6,7-tetrahydro-1H-imidazo[4,5-c]pyridine-2-carboxamido)-2′-methyl-[1,1′-biphenyl]-3-yl)carbamoyl)-1-methyl-1,4,6,7-tetrahydro-5H-imidazo[4,5-c]pyridin-5-yl)ethyl)benzoic acid]
Cn1c(C(=O)Nc2cccc(-c3cccc(NC(=O)c4nc5c(n4C)CCN(CC4CC4)C5)c3Cl)c2Cl)nc2c1CCN(CC[C@H]1CC[C@H](C(=O)O)CC1)C2 [Example 87, trans-4-(2-(2-((2,2′-dichloro-3′-(5-(cyclopropylmethyl)-1-methyl-4,5,6,7-tetrahydro-1H-imidazo[4,5-c]pyridine-2-carboxamido)-[1,1′-biphenyl]-3-yl)carbamoyl)-1-methyl-1,4,6,7-tetrahydro-5H-imidazo[4,5-c]pyridin-5-yl)ethyl)cyclohexane-1-carboxylic acid]
Cn1c(C(=O)Nc2cccc(-c3cccc(NC(=O)c4nc5c(n4C)CCN(C[C@H]4CC[C@H](C(=O)O)CC4)C5)c3Cl)c2Cl)nc2c1CCN(CC1CC1)C2 [Example 63, trans-4-((2-(2,2′-dichloro-3′-(5-(cyclopropylmethyl)-1-methyl-4,5,6,7-tetrahydro-1H-imidazo[4,5-c]pyridine-2-carboxamido)biphenyl-3-ylcarbamoyl)-1-methyl-6,7-dihydro-1H-imidazo[4,5-c]pyridin-5(4H)-yl)methyl)cyclohexane-1-carboxylic acid]
Cc1c(NC(=O)c2cc(CN3CC[C@@H](C(=O)O)C3)cn(C)c2=O)cccc1-c1cccc(NC(=O)c2nc3c(n2C)CCN(C)C3)c1Cl [Example 49, (R)-1-((5-(2′-chloro-3′-(1,5-dimethyl-4,5,6,7-tetrahydro-1H-imidazo[4,5-c]pyridine-2-carboxamido)-2-methylbiphenyl-3-ylcarbamoyl)-1-methyl-6-oxo-1,6-dihydropyridin-3-yl)methyl)pyrrolidine-3-carboxylic acid]
Cc1c(NC(=O)c2nc3c(n2C)CCN(CC24CCC(C(=O)O)(CC2)CC4)C3)cccc1-c1cccc(NC(=O)c2nc3c(n2C)CCN(C)C3)c1Cl [Example 103, 4-((2-(2′-chloro-3′-(1,5-dimethyl-4,5,6,7-tetrahydro-1H-imidazo[4,5-c]pyridine-2-carboxamido)-2-methylbiphenyl-3-ylcarbamoyl)-1-methyl-6,7-dihydro-1H-imidazo[4,5-c]pyridin-5(4H)-yl)methyl)bicyclo[2.2.2]octane-1-carboxylic acid]
CCN1CCc2c(nc(C(=O)Nc3cccc(-c4cccc(NC(=O)c5nc6c(n5C)CCN(CC[C@H]5CC[C@H](C(=O)O)CC5)C6)c4Cl)c3Cl)n2C)C1 [Example 86, trans-4-(2-(2-((2,2′-dichloro-3′-(5-ethyl-1-methyl-4,5,6,7-tetrahydro-1H-imidazo[4,5-c]pyridine-2-carboxamido)-[1,1′-biphenyl]-3-yl)carbamoyl)-1-methyl-1,4,6,7-tetrahydro-5H-imidazo[4,5-c]pyridin-5-yl)ethyl)cyclohexane-1-carboxylic acid]
Cc1c(NC(=O)c2nc3c(n2C)CCN(C2CCCCC2)C3)cccc1-c1cccc(NC(=O)c2nc3c(n2C)CCN(C2CCC(C)(C(=O)O)CC2)C3)c1Cl (centres unmarked) [Compound 139, 4-(2-((2-chloro-3-(5-cyclohexyl-1-methyl-4,5,6,7-tetrahydro-1H-imidazo[4,5-c]pyridine-2-carboxamido)-2′-methyl-[1,1′-biphenyl]-3-yl)carbamoyl)-1-methyl-1,4,6,7-tetrahydro-5H-imidazo[4,5-c]pyridin-5-yl)-1-methylcyclohexane-1-carboxylic acid]
CN1CCc2c(nc(C(=O)Nc3cccc(-c4cccc(NC(=O)c5nc6c(n5C)CCN(CC[C@H]5CC[C@H](C(=O)O)CC5)C6)c4Cl)c3C#N)n2C)C1 [Compound 150, trans-4-(2-(2-(2-chloro-2′-cyano-3′-(1,5-dimethyl-4,5,6,7-tetrahydro-1H-imidazo[4,5-c]pyridine-2-carboxamido)biphenyl-3-ylcarbamoyl)-1-methyl-6,7-dihydro-1H-imidazo[4,5-c]pyridin-5(4H)-yl)ethyl)cyclohexane-1-carboxylic acid]
Cc1c(NC(=O)c2nc3c(n2C)CCN(CCCNS(C)(=O)=O)C3)cccc1-c1cccc(NC(=O)c2nc3c(n2C)CCN(C)C3)c1Cl [Example 36, N-(2-chloro-2′-methyl-3′-(1-methyl-5-(3-(methylsulfonamido)propyl)-4,5,6,7-tetrahydro-1H-imidazo[4,5-c]pyridine-2-carboxamido)biphenyl-3-yl)-1,5-dimethyl-4,5,6,7-tetrahydro-1H-imidazo[4,5-c]pyridine-2-carboxamide]
Cc1c(NC(=O)c2cc(CN3CCCC3)cn(C)c2=O)cccc1-c1cccc(NC(=O)c2nc3c(n2C)CCN(C)C3)c1Cl [Example 50, N-(2-chloro-2′-methyl-3′-(1-methyl-2-oxo-5-(pyrrolidin-1-ylmethyl)-1,2-dihydropyridine-3-carboxamido)biphenyl-3-yl)-1,5-dimethyl-4,5,6,7-tetrahydro-1H-imidazo[4,5-c]pyridine-2-carboxamide]
